# Test results taken from patent publication US5834259A, “Process and composition for preparing D-aspartic acid” (Monsanto Company, priority 1996, dated 1998).
# Molecular target: T1, L-aspartate-α-decarboxylase (Escherichia coli, UniProt P0A790)
# T1 construct: expressed in transfected cells; host or cells: E. coli W3110 transformed with pIF309 = strain NS3291 (ATCC 98675), whole cells
# Assay: Activity towards D/L-glutamate and D/L-alanine, D/L-aspartate as control (Example 8)
# Assay type: biochemical, E. coli K12
# Details: racemate substrate, pH 7.0
# Protocol: D/L-aspartate was run as a control.
# Substrates were prepared by dissolving solid amino acid racemate in approximately 75 ml deionized H2 O and adjusting the pH to 7.0 with 10N NaOH. The volume was then brought to 100 ml with deionized H2 O. The cells used were stored frozen for about 1 month and then thawed and stored in a refrigerator for about 1 month prior to running the experiments.
# The reaction was run the same as described in the prior Examples. Samples of supernatant fluid, approximately 0.20 ml, were removed over time, centrifuged and stored frozen before analysis by HPLC as described in the prior Examples.
structure (smiles),measurement,setting,value
C[C@@H](N)C(=O)O [D-Ala],concentration in supernatant fluid,0 hr,19.190 mg/mL
same,concentration in supernatant fluid,3.5 hr,18.590 mg/mL
same,percent remaining,3.5 hr,96.873%
same,concentration in supernatant fluid,8.5 hr,18.370 mg/mL
same,percent remaining,8.5 hr,95.727%
same,concentration in supernatant fluid,24 hr,17.930 mg/mL
same,percent remaining,24 hr,93.434%
same,concentration in supernatant fluid,55 hr,17.580 mg/mL
same,percent remaining,55 hr,91.610%
N[C@H](CCC(=O)O)C(=O)O [D-Glu],concentration in supernatant fluid,0 hr,29.440 mg/mL
same,concentration in supernatant fluid,3.5 hr,29.010 mg/mL
same,percent remaining,3.5 hr,98.539%
same,concentration in supernatant fluid,8.5 hr,29.520 mg/mL
same,percent remaining,8.5 hr,100.27%
same,concentration in supernatant fluid,24 hr,29.350 mg/mL
same,percent remaining,24 hr,99.694%
same,concentration in supernatant fluid,55 hr,29.840 mg/mL
same,percent remaining,55 hr,101.36%
C[C@H](N)C(=O)O [L-Ala],concentration in supernatant fluid,0 hr,19.320 mg/mL
same,concentration in supernatant fluid,3.5 hr,18.960 mg/mL
same,percent remaining,3.5 hr,98.137%
same,concentration in supernatant fluid,8.5 hr,18.730 mg/mL
same,percent remaining,8.5 hr,96.946%
same,concentration in supernatant fluid,24 hr,18.320 mg/mL
same,percent remaining,24 hr,94.824%
same,concentration in supernatant fluid,55 hr,17.830 mg/mL
same,percent remaining,55 hr,92.288%
N[C@@H](CCC(=O)O)C(=O)O [L-Glu],concentration in supernatant fluid,0 hr,29.350 mg/mL
same,concentration in supernatant fluid,3.5 hr,28.400 mg/mL
same,percent remaining,3.5 hr,96.763%
same,concentration in supernatant fluid,8.5 hr,28.740 mg/mL
same,percent remaining,8.5 hr,97.922%
same,concentration in supernatant fluid,24 hr,28.200 mg/mL
same,percent remaining,24 hr,96.082%
same,concentration in supernatant fluid,55 hr,28.000 mg/mL
same,percent remaining,55 hr,95.400%
